≈ marks a conversion by molar mass, not a printed value. Read-outs that look alike come from different tables or passages of the source.
Experiments:
HIV-1(IIIB) = assay: Anti-HIV-1 activity in CD4+ T-lymphocyte CEM cell cultures; format: cell-based; conditions: Human immunodeficiency virus 1, CCRF-CEM, virus-induced cytopathicity
From the text: (§1) Human CD4 ^+ T-lymphocyte CEM cell cultures were inoculated with HIV-1 and HIV-2 and exposed to adefovir, tenofovir, or PMEO-DAPym. […]

HIV-2(ROD) = assay: Anti-HIV-2 activity in CD4+ T-lymphocyte CEM cell cultures; format: cell-based; conditions: Human immunodeficiency virus 2, CCRF-CEM; HIV-2(ROD), CEM, virus-induced cytopathicity; read-out: EC50
From the text: as §1

HSV-2 (G) [1] = assay: HSV-2 infection of primary monocyte/macrophage (M/M) cultures; format: cell-based
Procedure: We obtained human PBMC from the blood of healthy seronegative donors using Ficoll–Hypaque density gradient centrifugation. The PBMC were resuspended in RPMI 1640 medium supplemented with 20% heat-inactivated serum and then seeded into 48-well plates (1.8×10^6 cells/well). M/M were separated by adherence onto plastic. After 5 days, non-adherent cells were carefully removed by repeated gentle washings with warm medium, and adherent M/M were cultured for an additional 3 days to mature and to form a monolayer. M/M were estimated to be 10^5 cells/well at the time of infection. […]. Similarly, macrophage cultures were treated with the same concentrations of adefovir and tenofovir. Macrophage cultures were then infected with HSV-2 (G) (100 TCID50) in the presence of the compounds. After 2 h of adsorption, the cultures were extensively washed to remove any residual virus particles. Fresh complete medium and compounds, at the established concentrations, were then added to the cultures. Appropriate positive (infected but not treated) and mock-infected negative (uninfected and untreated) M/M controls were run for each experiment as well. All assays were performed in triplicate. […] We determined the amount of infectious virus in the supernatants 5–6 days after infection using the cytopathic effect assay. Tenfold serially diluted supernatants were added to confluent monolayers of Vero cells in 96-well plates (100 µl/well, 6 parallel wells). […] The titers of virus produced were calculated according to the Reed and Muench method and expressed as 50% tissue culture infective dose per mL (TCID50/mL).

HSV-2 (G) [2] = assay: HSV-2 replication in human ex vivo tonsillar (lymphoid) tissue, viral DNA; format: cell-based
From the text: Figure 5 Suppression of HSV-2 in infected human ex vivo tonsillar tissue by adefovir and PMEO-DAPym. Blocks of human tonsillar tissue were inoculated ex vivo with HSV-2 (G) and treated or not with adefovir or PMEO-DAPym. We monitored HSV-2 (G) replication by measuring viral DNA in culture media at different times throughout the culture period. Presented are means ± SEM of cumulative HSV-2 (G) replication in tissues from two to six donors. For each donor, data represent pooled viral release from 27 tissue blocks.
Figure 7 Suppression of HSV-2 in single-infected and HIV-1 co-infected human ex vivo tonsillar tissue by adefovir and PMEO-DAPym. Panels A and B: Blocks of human tonsillar tissue from five different donors were co-inoculated ex vivo with HSV-2 (G) and HIV-1 (LAI) and treated or not with adefovir or PMEO-DAPym (1 µg/ml). For tissue from each donor, we monitored replication of both viruses by evaluating their accumulation in the culture media bathing 27 tissue blocks at different times throughout the culture. We evaluated HIV-1 replication by measuring p24gag and HSV-2 (G) replication by measuring HSV-2 viral DNA. Panel A: Presented are kinetics of HSV-2 (G) and HIV-1 (LAI) replication (insert). Each point represents the mean ± SEM of viral replication in tissues from five donors. Panel B: Presented are means ± SEM of cumulative HSV-2 (G) and HIV-1 (LAI) replication (insert).
Human tonsillar tissues were obtained from patients undergoing routine tonsillectomy at the Children's National Medical Center (Washington, DC) under IRB-approved protocol. Cervical tissues were obtained through the National Disease Research Interchange (NDRI, Philadelphia, PA). Tissues were dissected into blocks of about 2×2×2 mm and placed onto collagen sponge gels in culture medium at the air-liquid interface as described earlier. For tonsillar tissue for each experimental condition, 27 tissue blocks (9 blocks/well filled with 3 ml of medium) were inoculated with HSV-1 (strain F) or HSV-2 (strains G and MS). In coinfection experiments, tissue blocks were sequentially infected with HSV-2 (G) and HIV-1 (IIIB) (obtained from the Rush University Virology Quality Assurance Laboratory, Chicago, IL). Drugs (adefovir and PMEO-DAPym) were added to the culture medium 12 h prior to viral infection and replenished at each culture medium change.
For cervico-vaginal tissue, 16 blocks were infected by immersion in HSV-2G-containing medium and maintained on the gelfoam rafts. Adefovir was added at the time of infection and replenished at each culture medium change. HSV replication was evaluated from the release of viral DNA into the culture medium as measured with quantitative real-time PCR [18]. We evaluated HIV-1 replication from the release of p24 capsid antigen using a bead-based assay.

HSV-1 (KOS strain) = assay: Pre-treatment of PHK cell cultures, HSV-1 infection (CPE)
Procedure: (§2) The HSV-induced cytopathic effect (CPE) was evaluated in HSV-infected HEL and PHK cultures as described [44], [48].

HSV-2 (G strain) = assay: Pre-treatment of PHK cell cultures, HSV-2 infection (CPE)
Procedure: as §2

EC50 (HIV-1(IIIB)): > 100 mg/L | EC50 (HIV-2(ROD)): > 100 mg/L | EC50 (HSV-2 (G) [1]; Human alphaherpesvirus 2, HSV-2 (G), human monocyte/macrophages): 0.13 ± 0.015 mg/L (≈ 0.577 µM) | EC50 (HSV-1 (KOS strain); Human alphaherpesvirus 1, read-out: 50% effective concentration, PHK, HSV-1 KOS, +2 h to 72 h (control, drug present whole incubation)): 0.33 ± 0.25 mg/L (≈ 1.47 µM) | EC50 (HSV-1 (KOS strain); Human alphaherpesvirus 1, read-out: 50% effective concentration, PHK, HSV-1 KOS, pretreatment −2.5 h to 0 h): > 50 mg/L | EC50 (HSV-1 (KOS strain); Human alphaherpesvirus 1, read-out: 50% effective concentration, PHK, HSV-1 KOS, pretreatment −6 h to 0 h): > 50 mg/L | EC50 (HSV-1 (KOS strain); Human alphaherpesvirus 1, read-out: 50% effective concentration, PHK, HSV-1 KOS, pretreatment −18 h to 0 h): > 50 mg/L | EC50 (HSV-2 (G strain); Human alphaherpesvirus 2, read-out: 50% effective concentration, PHK, HSV-2 G, +2 h to 72 h (control, drug present whole incubation)): 0.41 ± 0.13 mg/L (≈ 1.82 µM) | EC50 (HSV-2 (G strain); Human alphaherpesvirus 2, read-out: 50% effective concentration, PHK, HSV-2 G, pretreatment −2.5 h to 0 h): 50 mg/L (≈ 222 µM) | EC50 (HSV-2 (G strain); Human alphaherpesvirus 2, read-out: 50% effective concentration, PHK, HSV-2 G, pretreatment −6 h to 0 h): > 50 mg/L | EC50 (HSV-2 (G strain); Human alphaherpesvirus 2, read-out: 50% effective concentration, PHK, HSV-2 G, pretreatment −18 h to 0 h): > 50 mg/L
Compound: Nc1nc2c(ncn2COCCO)c(=O)[nH]1 [Acyclovir, 9-(2-hydroxyethyloxymethyl)guanine]
Cytopathicity (CPE) on macrophages 6 days after infection % CPE (HSV-2 (G) [1]; 0.000025 µg/ml): 75% | Virus production by HSV2-infected macrophages 6 days after infection (CPE reduction) (HSV-2 (G) [1]; 0.000025 µg/ml): 1.3×10^4 TCID50/ml | Cytopathicity (CPE) on macrophages 6 days after infection % CPE (HSV-2 (G) [1]; 0.000128 µg/ml): 40% | Virus production by HSV2-infected macrophages 6 days after infection (CPE reduction) (HSV-2 (G) [1]; 0.000128 µg/ml): 7.2×10^3 TCID50/ml | Cytopathicity (CPE) on macrophages 6 days after infection % CPE (HSV-2 (G) [1]; 0.00064 µg/ml): 10% | Virus production by HSV2-infected macrophages 6 days after infection (CPE reduction) (HSV-2 (G) [1]; 0.00064 µg/ml): 3.5×10^2 TCID50/ml | Virus production by HSV2-infected macrophages 6 days after infection (CPE reduction) (HSV-2 (G) [1]; 0.003 µg/ml): No virus | Virus production by HSV2-infected macrophages 6 days after infection (CPE reduction) (HSV-2 (G) [1]; 0.016 µg/ml): No virus | Virus production by HSV2-infected macrophages 6 days after infection (CPE reduction) (HSV-2 (G) [1]; 0.08 µg/ml): No virus | inhibition at 25 pg/mL (HSV-2 (G) [1]; Human alphaherpesvirus 2, 144 h, 0.000025 µg/ml, M/M, day 6, read-out: Inhibition of viral replication (% to control)): 7.2% | inhibition at 0.000128 µg/mL (HSV-2 (G) [1]; Human alphaherpesvirus 2, 144 h, 0.000128 µg/ml, M/M, day 6, read-out: Inhibition of viral replication (% to control)): 49% | inhibition at 0.00064 µg/mL (HSV-2 (G) [1]; Human alphaherpesvirus 2, 144 h, 0.00064 µg/ml, M/M, day 6, read-out: Inhibition of viral replication (% to control)): 97% | inhibition at 0.003 µg/mL (HSV-2 (G) [1]; Human alphaherpesvirus 2, 144 h, 0.003 µg/ml, M/M, day 6, read-out: Inhibition of viral replication (% to control)): 100% | inhibition at 0.016 µg/mL (HSV-2 (G) [1]; Human alphaherpesvirus 2, 144 h, 0.016 µg/ml, M/M, day 6, read-out: Inhibition of viral replication (% to control)): 100% | inhibition at 0.08 µg/mL (HSV-2 (G) [1]; Human alphaherpesvirus 2, 144 h, 0.08 µg/ml, M/M, day 6, read-out: Inhibition of viral replication (% to control)): 100% | inhibition at 0.3 µg/mL (HSV-2 (G) [2]; Human alphaherpesvirus 2, human lymphoid tissue ex vivo, 0.3 µg/mL, read-out: Inhibition of viral replication (% to control)): 99.9% | inhibition at 3 µg/mL (HSV-2 (G) [2]; Human alphaherpesvirus 2, human lymphoid tissue ex vivo, 3 µg/mL, read-out: Inhibition of viral replication (% to control)): > 99% | HSV-2 DNA copies (HSV-2 (G) [2]; human lymphoid tissue ex vivo, 0.3 µg/mL): 1.69 e+5 copies | HSV-2 DNA copies (HSV-2 (G) [2]; human lymphoid tissue ex vivo, 3 µg/mL): 2.83 e+4 copies | Inhibition of viral replication (% to control) (HSV-2 (G) [2]; human lymphoid tissue ex vivo, 3 µg/mL, listed as ACV): 99.98%

Source: PMC3723632, “A Multi-targeted Drug Candidate with Dual Anti-HIV and Anti-HSV Activity” (PLoS Pathogens, 2013)
